Experimental data: US8551516B2, “Administration of non-oral androgenic steroids to women” (Actavis, Inc., priority 1999, dated 2013)

Key:
[1] = biological target: T1, sex hormone binding globulin (SHBG) (Homo sapiens, UniProt P04278); details: adapted from Dunn et al. 1981; human plasma; cited from earlier work
T1 sequence (P04278 30-402): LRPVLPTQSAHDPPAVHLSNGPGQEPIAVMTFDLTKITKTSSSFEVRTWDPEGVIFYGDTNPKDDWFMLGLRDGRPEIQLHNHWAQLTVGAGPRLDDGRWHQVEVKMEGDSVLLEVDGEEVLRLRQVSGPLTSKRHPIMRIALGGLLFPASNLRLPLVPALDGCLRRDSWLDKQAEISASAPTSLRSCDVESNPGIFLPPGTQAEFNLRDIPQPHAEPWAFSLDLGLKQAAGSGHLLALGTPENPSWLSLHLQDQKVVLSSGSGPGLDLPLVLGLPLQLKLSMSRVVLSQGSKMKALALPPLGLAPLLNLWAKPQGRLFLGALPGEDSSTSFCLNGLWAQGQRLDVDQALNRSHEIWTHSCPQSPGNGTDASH

SHBG [2] = details: known from literature (Bond et al. 1987; Miller et al. 1998); cited from earlier work
SHBG [3] = experiment: Serum SHBG level prior to patch application in the pharmacokinetic study; type: in vivo, human; details: mean±SEM, surgically menopausal women on the estrogen
Text: The structure and proposed functions of SHBG have been described and characterized. See, for example, Rosner et al., Sex Hormone-Binding Globulin Mediates Steroid Hormone Signal Transduction at the Plasma Membrane, J. Steroid Biochem. Mol. Biol. Vol. 69:481-5 (1999); Petra, P. H. The plasma Sex Steroid Binding Protein (SBP or SHBG). A Critical Review of Recent Developments on the Structure, Molecular Biology, and Function, J. Steroid Biochem. Mol. Biol., Vol. 40:735-53 (1991). A variety of methods have been used to quantify the serum concentrations of SHBG, including ammonium sulfate precipitation, gel filtration, equilibrium dialysis, dextran-coated charcoal, and radioimmunoassay. See, for example, Khan et al., Radioimmunoassay for Human Testosterone-Estradiol-Binding Globulin, J. Clinical Endocrinology and Metabolism, Vol. 54:705-710 (1982). […] Serum SHBG levels are known to be elevated in women treated with oral estrogens, estrogen-containing oral contraceptives, clomiphene, tamoxifen, raloxifene, phenytoin, and sodium valproate, as well as in women who are pregnant, hyperthyroid, have chronic liver disease and HIV-infection. See for example, Bond et al., Sex Hormone Binding Globulin in Clinical Perspective, Acta. Obstet. Gynecol. […]

Row | SMILES | K (binding affinity constant for SHBG) [1] | Serum SHBG levels in women treated (SHBG [2]) | other results
1 | CC(=O)[C@@]1(O)CC[C@H]2[C@@H]3CCC4=CC(=O)CC[C@]4(C)[C@H]3CC[C@@]21C [17-hydroxyprogesterone] | 9.9 10^6 Liter/mole |  | 
2 | CCN(CC)CCOc1ccc(C(=C(Cl)c2ccccc2)c2ccccc2)cc1 [clomiphene] |  | elevated | 
3 | CCCC(CCC)C(=O)[O-].[Na+] [sodium valproate] |  | elevated | 
4 | O=C1NC(=O)C(c2ccccc2)(c2ccccc2)N1 [phenytoin] |  | elevated | 
5 | C[C@]12CCC(=O)C=C1CC[C@@H]1[C@@H]2CC[C@]2(C)C(=O)CC[C@@H]12 [androstenedione] | 29 10^6 Liter/mole |  | 
6 | C[C@]12CC[C@H](O)CC1=CC[C@@H]1[C@@H]2CC[C@]2(C)C(=O)CC[C@@H]12 [dehydroepiandrosterone] | 66 10^6 Liter/mole |  | 
7 | CC(=O)[C@H]1CC[C@H]2[C@@H]3CCC4=CC(=O)CC[C@]4(C)[C@H]3CC[C@]12C [progesterone] | 8.8 10^6 Liter/mole |  | 
8 | C[C@]12CC[C@@H](O)C[C@@H]1CC[C@@H]1[C@@H]2CC[C@]2(C)C(=O)CC[C@@H]12 [androsterone] | 14 10^6 Liter/mole |  | 
9 | C[C@]12CC[C@@H]3c4ccc(O)cc4CC[C@H]3[C@@H]1C[C@@H](O)[C@@H]2O [estriol] | 4.3 10^6 Liter/mole |  | 
10 | C[C@]12CC[C@@H]3c4ccc(O)cc4CC[C@H]3[C@@H]1CC[C@@H]2O [estradiol] |  |  | SHBG (SHBG [3]): 90.8 ± 12.9 nmol/L
11 | C[C@]12CCC(=O)C[C@@H]1CC[C@@H]1[C@@H]2CC[C@]2(C)[C@@H](O)CC[C@@H]12 [dihydrotestosterone] | 5500 10^6 Liter/mole |  | 
12 | CC/C(=C(\c1ccccc1)c1ccc(OCCN(C)C)cc1)c1ccccc1 [tamoxifen] |  | elevated | 
13 | O=C(c1ccc(OCCN2CCCCC2)cc1)c1c(-c2ccc(O)cc2)sc2cc(O)ccc12 [raloxifene] |  | elevated | 
14 | C[C@]12CCC(O)C[C@@H]1CC[C@@H]1[C@@H]2CC[C@]2(C)[C@@H](O)CC[C@@H]12 (some centres unmarked) [androstanediol] | 1300 10^6 Liter/mole |  | 
